Measured values as given in US20250275953A1, “VODOBATINIB FOR REDUCING PROGRESSION OF PARKINSON'S DISEASE” (Sun Pharma Advanced Research Company Ltd., priority 2022, published 2025).
“Also recorded” adds a separate entry of the source.

Experiment: Safety and tolerability, healthy volunteers
Format: in vivo, human
Settings: for number of treatment-related TEAEs: four subjects
Protocol: The subjects were further assessed for safety. Accordingly, hematology, chemistry, urinalysis testing and vital signs examination (seated systolic [SBP] and diastolic blood pressure [DBP], pulse, respiration rate, and temperature) were performed at screening, check-in and at the exit visit prior to discharge from the study. Seated vital signs were checked after 1 h, 4 h, and 12 h of the first dose on Day 1. 12-lead ECGs were recorded on Day 1 and Day 7 in triplicate 0.75 h, 0.5 h and 0.25 h prior to the dose and after 0.5 h, 1 h, 2 h, 3 h, 4 h, 8 h, 12 h, and 24 h of the dose with subjects in supine position. Lumbar catheter was placed on day 7 and the vital signs were checked after 1 h, 4 h, and 12 h of the dose. Vital signs were examined within 15 minutes prior to the collection of samples for PK studies.
All adverse event (AE)s were captured and documented throughout the study from the time of ICF signing to 7 days after the last dose of study medication or early termination.
The AEs were coded according to MedDRA® and grouped by Preferred Terms (PT) and System Organ Class (SOC). All AEs were classified and graded according to CTCAE Version 4.03 or later. Incidence (n) and percentage (%) was reported for coded TEAEs by cohort for the SAF Population. Subjects with more than one of the same PTs within an SOC were counted only once.
Categorical ECG analysis included the number and percentage of individuals with abnormal ECG findings and those with: absolute QTcF values >450 milliseconds, absolute QTcF values >480 milliseconds, absolute QTcF values >500 milliseconds, change from baseline >30 msec, and change from baseline >60 msec. No subject reported clinically significant abnormalities. […] No AEs related to ECG parameters were reported in any group during the study.
Forty-one healthy adult male volunteers aged 18 to 45 with body mass indexes (BMI)≥18 to ≤30 Kg/m^2 and total body weight >50 kg (110 lb) were screened in order to enroll 19 subjects with an average age of 34.2 years (range 21.5-45.6 years) into this study Six participants were randomly assigned to the 48 and 192 mg cohorts, and seven participants were assigned to the 384 mg cohort. After an overnight fast, participants received once daily doses of vodobatinib as capsules for 7 days. Serial PK blood samples to measure vodobatinib plasma concentrations were collected at pre-dose and at 0.25, 0.5, 1, 1.5, 2, 2.5, 3, 4, 6, 8, 12, 16 and 24 h post-dose after the first dose on Day 1 and the last dose on day 7. Additional PK samples prior to the morning doses were taken on Days 3-6. On the morning of Day 7, prior to dosing, an indwelling intrathecal catheter was inserted in the lumbar region (L3-L5). Serial CSF samples were collected through the catheter connected via peristaltic pump to a fraction collector. At each designated CSF collection time point, 8 mL of CSF was collected at a flow rate of 0.5 mL/min over a 16-min period at pre-dose, and 0.5, 1.0, 1.5, 2, 2.5, 3, 4, 6, 8, 12 and 24 h post-dose. The first 2 mL of CSF was discarded, and the remaining 6 mL was used for the vodobatinib assay. The occurrence of treatment-emergent adverse events (TEAEs) and serious AEs (SAEs) reported through the completion of study were collected. Clinical laboratory parameters, vital signs and physical examination data and electrocardiogram (ECG) were collected and evaluated relative to baseline values.

[1] = Total (N = 19), listed as vodobatinib
[2] = all cohorts, listed as vodobatinib

Question: Which results are given for Cc1ccc(C(=O)NNC(=O)c2c(C)cccc2Cl)cc1C#Cc1cnc2ccccc2c1 [N′-(2-chloro-6-methylbenzoyl)-4-methyl-3-[2-(3-quinolyl)ethynyl]-benzohydrazide]?
Answer: IMP Related TEAEs: Abdominal Distension, N (%) (48 mg (N = 6)): 0; IMP Related TEAEs: Gastrointestinal Disorders, N (%) (48 mg (N = 6)): 0; IMP Related TEAEs: General Disorders and Administration Site Conditions, N (%) (48 mg (N = 6)): 0; IMP Related TEAEs: Headache, N (%) (48 mg (N = 6)): 1 (16.7); IMP Related TEAEs: Musculoskeletal and Connective Tissue Disorders, N (%) (48 mg (N = 6)): 0; IMP Related TEAEs: Myalgia, N (%) (48 mg (N = 6)): 0; IMP Related TEAEs: Nausea, N (%) (48 mg (N = 6)): 0; IMP Related TEAEs: Nervous System Disorders, N (%) (48 mg (N = 6)): 1 (16.7); IMP Related TEAEs: Pain, N (%) (48 mg (N = 6)): 0; IMP Related TEAEs: Subjects with at least one AE, N (%) (48 mg (N = 6)): 1 (16.7); IMP Related TEAEs: Subjects with more than one AE, N (%) (48 mg (N = 6)): 0; Number of subjects with at least one TEAE (48 mg (N = 6)): 4; Study Drug Related TEAEs, subjects (48 mg (N = 6)): 1; Study Drug Withdrawn, subjects (48 mg (N = 6)): 0; TEAEs Certainly, subjects (48 mg (N = 6)): 0; TEAEs Mild, subjects (48 mg (N = 6)): 4; TEAEs Moderate, subjects (48 mg (N = 6)): 1; TEAEs None (row before Study Drug Withdrawn), subjects (48 mg (N = 6)): 4; TEAEs Possibly, subjects (48 mg (N = 6)): 1; TEAEs Probably, subjects (48 mg (N = 6)): 0; TEAEs Unlikely, subjects (48 mg (N = 6)): 0; TEAEs Unrelated, subjects (48 mg (N = 6)): 4; number of TEAEs (48 mg (N = 6)): 9; IMP Related TEAEs: Abdominal Distension, N (%) (192 mg (N = 6)): 0; IMP Related TEAEs: Gastrointestinal Disorders, N (%) (192 mg (N = 6)): 1 (16.7); IMP Related TEAEs: General Disorders and Administration Site Conditions, N (%) (192 mg (N = 6)): 0; IMP Related TEAEs: Headache, N (%) (192 mg (N = 6)): 1 (16.7); IMP Related TEAEs: Musculoskeletal and Connective Tissue Disorders, N (%) (192 mg (N = 6)): 1 (16.7); IMP Related TEAEs: Myalgia, N (%) (192 mg (N = 6)): 1 (16.7); IMP Related TEAEs: Nausea, N (%) (192 mg (N = 6)): 1 (16.7); IMP Related TEAEs: Nervous System Disorders, N (%) (192 mg (N = 6)): 1 (16.7); IMP Related TEAEs: Pain, N (%) (192 mg (N = 6)): 0; IMP Related TEAEs: Subjects with at least one AE, N (%) (192 mg (N = 6)): 1 (16.7); IMP Related TEAEs: Subjects with more than one AE, N (%) (192 mg (N = 6)): 1 (16.7); Number of subjects with at least one TEAE (192 mg (N = 6)): 4; Study Drug Related TEAEs, subjects (192 mg (N = 6)): 1; Study Drug Withdrawn, subjects (192 mg (N = 6)): 0; TEAEs Certainly, subjects (192 mg (N = 6)): 0; TEAEs Mild, subjects (192 mg (N = 6)): 4; TEAEs Moderate, subjects (192 mg (N = 6)): 2; TEAEs None (row before Study Drug Withdrawn), subjects (192 mg (N = 6)): 4; TEAEs Possibly, subjects (192 mg (N = 6)): 1; TEAEs Probably, subjects (192 mg (N = 6)): 0; TEAEs Unlikely, subjects (192 mg (N = 6)): 1; TEAEs Unrelated, subjects (192 mg (N = 6)): 3; number of TEAEs (192 mg (N = 6)): 10; IMP Related TEAEs: Abdominal Distension, N (%) (384 mg (N = 7)): 1 (14.3); IMP Related TEAEs: Gastrointestinal Disorders, N (%) (384 mg (N = 7)): 1 (14.3); IMP Related TEAEs: General Disorders and Administration Site Conditions, N (%) (384 mg (N = 7)): 1 (14.3); IMP Related TEAEs: Headache, N (%) (384 mg (N = 7)): 1 (14.3); IMP Related TEAEs: Musculoskeletal and Connective Tissue Disorders, N (%) (384 mg (N = 7)): 0; IMP Related TEAEs: Myalgia, N (%) (384 mg (N = 7)): 0; IMP Related TEAEs: Nausea, N (%) (384 mg (N = 7)): 1 (14.3); IMP Related TEAEs: Nervous System Disorders, N (%) (384 mg (N = 7)): 1 (14.3); IMP Related TEAEs: Pain, N (%) (384 mg (N = 7)): 1 (14.3); IMP Related TEAEs: Subjects with at least one AE, N (%) (384 mg (N = 7)): 2 (28.6); IMP Related TEAEs: Subjects with more than one AE, N (%) (384 mg (N = 7)): 1 (14.3); Number of subjects with at least one TEAE (384 mg (N = 7)): 3; Study Drug Related TEAEs, subjects (384 mg (N = 7)): 2; Study Drug Withdrawn, subjects (384 mg (N = 7)): 0; TEAEs Certainly, subjects (384 mg (N = 7)): 0; TEAEs Mild, subjects (384 mg (N = 7)): 3; TEAEs Moderate, subjects (384 mg (N = 7)): 1; TEAEs None (row before Study Drug Withdrawn), subjects (384 mg (N = 7)): 3; TEAEs Possibly, subjects (384 mg (N = 7)): 2; TEAEs Probably, subjects (384 mg (N = 7)): 1; TEAEs Unlikely, subjects (384 mg (N = 7)): 3; TEAEs Unrelated, subjects (384 mg (N = 7)): 0; number of TEAEs (384 mg (N = 7)): 9; subjects with absolute QTcF >450 ms (48, 192, 384 mg): None of the subjects; Study Drug Withdrawn, subjects (Total (N = 19)): 0; TEAEs Certainly, subjects (Total (N = 19)): 0; TEAEs Mild, subjects (Total (N = 19)): 11; TEAEs Moderate, subjects (Total (N = 19)): 4; TEAEs None (row before Study Drug Withdrawn), subjects (Total (N = 19)): 11; TEAEs Possibly, subjects (Total (N = 19)): 4; TEAEs Probably, subjects (Total (N = 19)): 1; TEAEs Unlikely, subjects (Total (N = 19)): 4; TEAEs Unrelated, subjects (Total (N = 19)): 7; number of TEAEs (Total (N = 19)): 28; Number of subjects with at least one TEAE [1]: Eleven; Study Drug Related TEAEs, subjects [1]: Four; SAEs (all cohorts): No subject experienced an SAE; also recorded: no SAEs; TEAE abdominal distention (all cohorts): 10.5%; TEAE back pain (all cohorts): 10.5%; TEAE headache and nausea (all cohorts): 15.8%; TEAE post lumbar puncture syndrome (all cohorts): 42.1%; findings in clinical laboratory results, vital signs, ECGs, physical examinations (all cohorts): no clinically relevant or significant findings; subjects with TEAEs unlikely related to study treatment (all cohorts): 21%; subjects with TEAEs unrelated to study treatment (all cohorts): 37%; subjects with mild TEAEs (all cohorts): 58%; subjects with moderate TEAEs (all cohorts): 21%; subjects reporting TEAEs (all cohorts (N = 19)): 58%; number of treatment-related TEAEs (all cohorts): 7; number of treatment-related TEAEs [2]: seven; SAEs [2]: no SAEs
